Two compounds from patent US4125707A, “Protected pseudotrisaccharide intermediate for paromomycin and neomycin derivatives” (Societa' Farmaceutici Italia S.p.A., priority 1974, dated 1978) can be followed below.

A short description of one data set: acute toxicity in mice. The conditions noted are these: mouse, in vivo, sc, subcutaneous route. As for the experimental part:
There were also carried out comparative trials for determining the actue toxicity and ototoxicity. The LD50 values in mice by the subcutaneous route are: Aminosidine, 700 mg/kg; Compound 224, 1000 mg/kg.

Another data set deals with Proteus sp.5. The experiment in a line: MIC, serial dilutions in liquid medium, Proteus sp.5. The data set is classed as cell-based. The settings on record: 24 h. The procedure:
(§1) The "in vitro" tests were carried out with the method of serial dilutions in liquid medium (Nutrient Broth Difco). The minimal inhibitory concentration (MIC) was determined after 24 h incubation at 37° C.
(§2) The resistance to the aminosidine is due, in the case of E. coli 526, to the production of an aminoglycoside inactivating enzyme (NKT I); the other strains are clinical isolates whose mechanism of resistance is not know.

Another data set deals with Proteus sp.3. The data set is described as follows: MIC, serial dilutions in liquid medium, Proteus sp.3. The format is cell-based. The conditions noted are these: 24 h, 37° C, Nutrient Broth Difco. The procedure:
as §1, §2

The next data set concerns Klebsiella pneumoniae. The experiment in a line: MIC, serial dilutions in liquid medium, Klebsiella pneumoniae. The data set is classed as cell-based. The settings on record: 24 h. The procedure:
as §1

Data set [1] concerns bacteria sensitive to the aminosidine. The data set is described as follows: antibacterial activity in vitro and in vivo on bacteria sensitive to aminosidine. As for the experimental part:
as §1
(§3) The therapeutic activity was assessed in mice experimentally infected with Staphylococcus aureus and treated (4 h after infection) with a single dose of the compound by the subcutaneous route.

Data set [2] relates to resistant strains (E. coli, Proteus sp.). The experiment in a line: antibacterial activity on resistant strains. The format is cell-based. The conditions noted are these: for growth of resistant strains (in words): E. coli, Proteus sp., at concentrations at which 224 prevents growth. As for the experimental part:
as §1, §2

A further data set relates to Proteus sp.1. The experiment in a line: MIC, serial dilutions in liquid medium, Proteus sp.1. The conditions noted are these: 24 h, 37° C, Nutrient Broth Difco. The format is cell-based. The procedure:
as §1, §2

Another data set relates to Escherichia coli B. The data set is described as follows: MIC, serial dilutions in liquid medium, Escherichia coli B. The data set is classed as cell-based. The settings on record: 24 h, 37° C, Nutrient Broth Difco. As for the experimental part:
as §1

The subject of another data set is Ochromonas malhamensis. The experiment in a line: growth inhibition of Ochromonas malhamensis in liquid nutrient medium. The format is cell-based. As for the experimental part:
(§4) Other tests were carried out on algae and protozoa in order to evaluate the sensitivity of eukaryotic organisms to this new molecule (determination of MIC in liquid nutrient medium).
(§5) (*)Dose inhibiting 50% of growth (.LAMBDA.) or of protein

Another data set relates to Staphylococcus aureus. The data set is described as follows: therapeutic activity in mice experimentally infected with Staphylococcus aureus. The data set is classed as in vivo. The settings on record: sc. The procedure: as §3
The next data set has as its system E.coli 526. The experiment in a line: MIC, serial dilutions in liquid medium, E. coli 526 (resistant, NKT I). The data set is classed as cell-based, Escherichia coli. As for the experimental part: as §1, §2
A further data set concerns Euglena gracilis. The data set is described as follows: growth inhibition of Euglena gracilis in liquid nutrient medium. The data set is classed as cell-based. As for the experimental part:
as §4, §5

The subject of another data set is Tetrahymena geleei. The data set is described as follows: growth inhibition of Tetrahymena geleei in liquid nutrient medium. The format is cell-based. The procedure:
as §4, §5

Data set [3] deals with ribosomes from Saccharomyces cerevisiae (8OS). The data set is described as follows: inhibition of protein synthesis in cell-free system, 80S ribosomes. The data set is classed as biochemical. As for the experimental part: (§6) Finally, compound 224 was tested as an inhibitor of protein synthesis on cell-free systems containing ribosomes from Escherichia coli (7OS) or from Saccharomyces cerevisiae (8OS).
as §5

For another data set, the system named is Proteus sp.2. The experiment in a line: MIC, serial dilutions in liquid medium, Proteus sp.2. The format is cell-based. The conditions noted are these: 24 h. As for the experimental part: as §1, §2
A further data set relates to Entamoeba histolytica. The experiment in a line: growth inhibition of Entamoeba histolytica in liquid nutrient medium. The format is cell-based. As for the experimental part: as §4
In data set [4] the test system is ribosomes from Escherichia coli (7OS). The data set is described as follows: inhibition of protein synthesis in cell-free system, 70S ribosomes. The format is biochemical. The conditions noted are these: for Activity (ID 50%), dose inhibiting 50% of protein synthesis: cell-free system, 70S ribosomes. The procedure: as §6, §5
For the next data set, the system named is algae and protozoa. The experiment in a line: growth of algae and protozoa. The settings on record: eukaryotic microorganisms, Table 2. The data set is classed as cell-based. As for the experimental part:
as §4

In the next data set the test system is E.coli K12. The data set is described as follows: MIC, serial dilutions in liquid medium, E. coli K12. The data set is classed as cell-based. The conditions noted are these: Escherichia coli, 24 h, 37° C, Nutrient Broth Difco. The procedure: as §1
The test system of a further data set is Proteus sp.4. The experiment in a line: MIC, serial dilutions in liquid medium, Proteus sp.4. The data set is classed as cell-based. The conditions noted are these: 24 h, 37° C, Nutrient Broth Difco. The procedure: as §1, §2
The subject of a further data set is Staphilococcus aureus. The experiment in a line: MIC, serial dilutions in liquid medium, Staphylococcus aureus. The data set is classed as cell-based. The conditions noted are these: 24 h. The procedure: as §1
The mark [5] stands for this setting: 37° C, Nutrient Broth Difco, read-out: MIC.

Values after ≈ are worked out from the molar mass of the structure shown. Like-named read-outs stand apart in the source and are kept apart here.

In general, LD50 refers to the dose expected to kill half of the subjects tested. By MIC is commonly meant the smallest concentration in the dilution series that meets the test's criterion for growth inhibition. In turn, `NC[C@@H]1O[C@H](O[C@H]2[C@@H](O)[C@H](O[C@@H]3[C@@H](O)[C@H](N)C[C@H](N)[C@H]3O[C@H]3O[C@H](CN)[C@@H](O)[C@H](O)[C@H]3O)O[C@@H]2CO)[C@H](N)[C@@H](O)[C@@H]1O` [compound 224] yielded an LD50 in the data set “acute toxicity in mice” of 1000 mg/kg. Further, the MIC is 250 µg/mL (≈ 406 µM) with Proteus sp.5 (setting [5]); 125 µg/mL (≈ 203 µM) in the data set with Proteus sp.3; 2 µg/mL (≈ 3.25 µM) in the data set on Klebsiella pneumoniae (setting [5]); 125 µg/mL (≈ 203 µM) with Proteus sp.1; 12.5 µg/mL (≈ 20.3 µM) in the data set on Escherichia coli B; 100 µg/mL (≈ 162 µM) in the data set on E.coli 526 (Escherichia coli, 526, 24 h, 37° C, Nutrient Broth Difco, resistant strain, read-out: MIC). In addition, the MIC turned out to be 250 µg/mL (≈ 406 µM) with Proteus sp.2 (setting [5]), 125 µg/mL (≈ 203 µM) against E.coli K12, 125 µg/mL (≈ 203 µM) against Proteus sp.4 and 6.2 µg/mL (≈ 10.1 µM) in the data set on Staphilococcus aureus (setting [5]). Moreover, in [1] (bacteria sensitive to the aminosidine), the “antibacterial activity in vitro and in vivo (in words)” value was “remarkable antibacterial activity in vitro and in vivo”. Also, in data set [1] (sensitive strains), the “antibacterial activity compared with aminosidine, sensitive strains (in words)” value is “of the same order of magnitude of that of aminosidine”. Further, the “growth of resistant strains (in words)” value in data set [2] is reported as “prevents the growth of resistant strains”. Moreover, the “antibacterial activity compared with aminosidine, resistant strains (in words)” value in data set [2] (resistant strains) is given as “clearly superior on resistant strains”. Further, the “Activity (ID 50%), dose inhibiting 50% of growth” value is reported as over 100 in the data set with Ochromonas malhamensis, over 100 with Euglena gracilis, over 100 with Tetrahymena geleei and over 20 in the data set on Entamoeba histolytica. In the data set with Staphylococcus aureus (mice, single subcutaneous dose 4 h after infection, read-out: DT50 (the source's name)), the ED50 is 50 mg/kg. Moreover, the “Activity (ID 50%), dose inhibiting 50% of protein synthesis” value in [3] is over 500; in [4] it was 40. For the same compound, in [4] (7OS in comparison with 8OS ribosomes), the “selective inhibition of protein synthesis (in words)” value was “selective inhibition of protein synthesis”. Moreover, the “effect on growth of algae and protozoa (in words)” value in the data set on algae and protozoa was “does not affect the growth of algae and protozoa”.

`NC[C@@H]1O[C@H](O[C@H]2[C@@H](O)[C@H](O[C@@H]3[C@@H](O)[C@H](N)C[C@H](N)[C@H]3O[C@H]3O[C@H](CO)[C@@H](O)[C@H](O)[C@H]3N)O[C@@H]2CO)[C@H](N)[C@@H](O)[C@@H]1O` [Aminosidine, reference compound] displayed an LD50 in the data set “acute toxicity in mice” of 700 mg/kg. The minimum inhibitory concentration (MIC) is over 500 µg/mL in the data set with Proteus sp.5; over 500 µg/mL against Proteus sp.3; 1 µg/mL (≈ 1.62 µM) against Klebsiella pneumoniae; 500 µg/mL (≈ 812 µM) with Proteus sp.1; 6.2 µg/mL (≈ 10.1 µM) in the data set on Escherichia coli B; over 500 µg/mL in the data set on E.coli 526 (Escherichia coli, 526, 24 h). In addition, the MIC against Proteus sp.2 was over 500 µg/mL; in the data set on E.coli K12, 500 µg/mL (≈ 812 µM); with Proteus sp.4, over 500 µg/mL; with Staphilococcus aureus, 3.1 µg/mL (≈ 5.04 µM). The “growth of resistant strains (in words)” value in data set [2] was “completely inactive”. Also, the “Activity (ID 50%), dose inhibiting 50% of growth” value in the data set on Ochromonas malhamensis stood at 1.56; in the data set on Euglena gracilis, 12.5; with Tetrahymena geleei, 12.5; in the data set with Entamoeba histolytica it was 1. Further, in the data set on Staphylococcus aureus (4 h, read-out: DT50), the ED50 stood at 25 mg/kg. In addition, the “Activity (ID 50%), dose inhibiting 50% of protein synthesis” value in [3] amounted to 65; in [4], 30. The “effect on growth of algae and protozoa (in words)” value with algae and protozoa was “strong inhibitor of the organisms tested”.
